Measured values as given in ChEMBL document CHEMBL1142614, “An antimicrobial C(14) acetylenic acid from a marine sponge Oceanapia species” (2000).
Active and inactive are the calls of the source. The calls are words filed in the database; no cut-off is given here.

Columns and labels:
Saccharomyces cerevisiae [1] = assay: Antimicrobial activity against Saccharomyces cerevisiae GT160-45C at 100 ug after 24 hrs; format: functional; details: read-out: IZ
Saccharomyces cerevisiae [2] = assay: Antimicrobial activity against Saccharomyces cerevisiae cdc5 mutant at 50 ug after 24 hrs; format: functional; details: read-out: IZ
Saccharomyces cerevisiae [3] = assay: Antimicrobial activity against Saccharomyces cerevisiae act1-1 mutant at 50 ug after 24 hrs; format: functional; details: read-out: IZ
Saccharomyces cerevisiae [4] = assay: Antimicrobial activity against Saccharomyces cerevisiae YAT2296 mutant at 50 ug after 24 hrs; format: functional; details: read-out: IZ
Saccharomyces cerevisiae [5] = assay: Antimicrobial activity against Saccharomyces cerevisiae cdc5 mutant at 100 ug after 24 hrs; format: functional; details: read-out: IZ
Saccharomyces cerevisiae [6] = assay: Antimicrobial activity against Saccharomyces cerevisiae act1-1 mutant at 100 ug after 24 hrs; format: functional; details: read-out: IZ
Saccharomyces cerevisiae [7] = assay: Antimicrobial activity against Saccharomyces cerevisiae YAT2296 mutant at 100 ug after 24 hrs; format: functional; details: read-out: IZ
Penicillium chrysogenum = assay: Antimicrobial activity against Penicillium chrysogenum after 24 hrs; format: functional, organism-based
Candida albicans = assay: Antimicrobial activity against Candida albicans at 100 ug after 24 hrs; format: functional; details: read-out: IZ
Umbelopsis ramanniana = assay: Antimicrobial activity against Mortierella ramanniana after 24 hrs; format: functional, organism-based
Escherichia coli [8] = assay: Antimicrobial activity against Escherichia coli at 50 ug after 24 hrs; format: functional; details: read-out: IZ
Escherichia coli [9] = assay: Antimicrobial activity against Escherichia coli at 100 ug after 24 hrs; format: functional; details: read-out: IZ
Pseudomonas aeruginosa [10] = assay: Antimicrobial activity against Pseudomonas aeruginosa at 50 ug after 24 hrs; format: functional; details: read-out: IZ
Pseudomonas aeruginosa [11] = assay: Antimicrobial activity against Pseudomonas aeruginosa at 100 ug after 24 hrs; format: functional; details: read-out: IZ
Bacillus subtilis = assay: Antimicrobial activity against Bacillus subtilis at 100 ug after 24 hrs; format: functional; details: read-out: IZ
Staphylococcus aureus [12] = assay: Antimicrobial activity against Staphylococcus aureus at 50 ug after 24 hrs; format: functional; details: read-out: IZ
Staphylococcus aureus [13] = assay: Antimicrobial activity against Staphylococcus aureus at 100 ug after 24 hrs; format: functional; details: read-out: IZ

CC/C=C/C#C/C=C/C#CCCCC(=O)O
zone of inhibition at 100 µg/disc (Saccharomyces cerevisiae [1]): 6.5 mm | zone of inhibition at 50 µg/disc (Saccharomyces cerevisiae [2]): 7 mm | zone of inhibition at 50 µg/disc (Saccharomyces cerevisiae [3]): 9 mm | zone of inhibition at 50 µg/disc (Saccharomyces cerevisiae [4]): 6.5 mm | zone of inhibition at 100 µg/disc (Saccharomyces cerevisiae [5]): 7.5 mm | zone of inhibition at 100 µg/disc (Saccharomyces cerevisiae [6]): 10 mm | zone of inhibition at 100 µg/disc (Saccharomyces cerevisiae [7]): 7 mm | Activity (Penicillium chrysogenum): inactive | zone of inhibition at 100 µg/disc (Candida albicans): 8.5 mm | Activity (Umbelopsis ramanniana): inactive | zone of inhibition at 50 µg/disc (Escherichia coli [8]): 8.5 mm | zone of inhibition at 100 µg/disc (Escherichia coli [9]): 12 mm | zone of inhibition at 50 µg/disc (Pseudomonas aeruginosa [10]): 8.5 mm | zone of inhibition at 100 µg/disc (Pseudomonas aeruginosa [11]): 13 mm | zone of inhibition at 100 µg/disc (Bacillus subtilis): 11 mm | zone of inhibition at 50 µg/disc (Staphylococcus aureus [12]): 9.5 mm | zone of inhibition at 100 µg/disc (Staphylococcus aureus [13]): 13.5 mm
